This note sets out measurements from US7875604B2, “Compounds that inhibit HIV particle formation” (University of Virginia Patent Foundation, priority 2004, dated 2011).

Read-outs that look alike come from different tables or passages of the source.

One data set deals with MT4 cells. Briefly: MTS-based toxicity assay in MT-4 T cell line. To be noted: Table 1, read-out: TC50 (the source's name). The procedure: The dose response assay was performed as follows
MTS-based toxicity assays were performed in parallel to the 3 and 6 point dose response assays.
The six point dose assay in 5BD.1 cells was used to calculate an IC50 for the compounds and data from the MT-4 toxicity assay allowed a TC50 to be calculated.
A general note: Tetrazolium assays rely on reduction of a dye to a coloured formazan, in cell work by metabolically active cells.

The next data set concerns the target T1, HIV-1 Rev (Human immunodeficiency virus type 1 group M subtype B, UniProt P04618).
T1 construct: expressed in transfected cells
Briefly: cell-based. As to conditions: for TI (TC50/IC50): Rev assay. The procedure: The eight compounds listed in Table 1 were also tested in an assay that measured HIV-1 Rev function. […] The reporter used for these assays is the Renilla Luciferase protein, which is an enzyme that produces detectable light when mixed with certain chemicals. For this assay, a cell line has been developed in which the production of the reporter by the cells requires the function of HIV-1 Rev. Therefore, if a drug candidate inhibits the function of Rev, it decreases the amount of the reporter produced by the cells. By using Renilla Luciferase as the reporter, the inhibition of Rev is easily detected as a decrease in the amount of light produced by the cells when mixed with the appropriate chemicals.
Compounds were tested in the Rev assay using the maximum high-test concentration possible based on the supplied stocks as shown in Table 3. Compounds were prepared at a 2× high-test concentration by combining drug stock with tissue culture media at a ratio of 5 μL of drug to 995 μL of media. This 2× high-test sample was subsequently serially diluted in tissue culture media using 1/2 log dilutions. This series of 2× concentrated drug was subsequently diluted 1:1 by combining with an equal volume of cells in media in the 96-well plates used for the assay.

For a further data set, the system named is HIV-1 NL4-3. As to the kind of experiment: Anti-HIV efficacy in fresh human PBMCs, reverse transcriptase readout, HIV-1 NL4-3. The data set is classed as cell-based. To be noted: for TI (TC50/IC50): HIV-1 NL4-3, PBMCs; for IC50: HIV-1 NL4-3, fresh human PBMCs, seven days, RT activity. The procedure:
Compounds were evaluated for their ability to inhibit HIV replication in fresh human PBMCs. The assay was performed as follows.
Fresh human PBMCs, seronegative for HIV and HBV, were isolated from screened donors (Interstate Blood Bank, Inc. Memphis, Tenn.). Cells were pelleted/washed 2-3 times by low speed centrifugation and re-suspension in PBS to remove contaminating platelets. The Leukophoresed blood was then diluted 1:1 with Dulbecco's Phosphate Buffered Saline (DPBS) and layered over 14 mL of Lymphocyte Separation Medium (LSM; Cellgro® by Mediatech, Inc.; density 1.078+/−0.002 g/ml; Cat.#85-072-CL) in a 50 mL centrifuge tube and then centrifuged for 30 minutes at 600×g. Banded PBMCs were gently aspirated from the resulting interface and subsequently washed 2× with PBS by low speed centrifugation. After the final wash, cells were enumerated by trypan blue exclusion and re-suspended at 1×10^7 cells/mL in RPMI 1640 supplemented with 15% Fetal Bovine Serum (FBS), and 2 mM L-glutamine, 4 μg/mL Phytohemagglutinin (PHA-P, Sigma). The cells were allowed to incubate for 48-72 hours at 37° C. After incubation, PBMCs were centrifuged and resuspended in RPMI 1640 with 15% FBS, 2 mM L-glutamine, 100 U/mL penicillin, 100 μg/mL streptomycin, 10 μg/mL gentamycin, and 20 U/mL recombinant human IL-2 (R&D Systems, Inc). IL-2 is included in the culture medium to maintain the cell division initiated by the PHA mitogenic stimulation. PBMCs were maintained in this medium at a concentration of 1-2×10^6 cells/mL with biweekly medium changes until used in the assay protocol. Cells were kept in culture for a maximum of two weeks before being deemed too old for use in assays and discarded. Monocytes were depleted from the culture as the result of adherence to the tissue culture flask.
(§1) For the standard PBMC assay, PHA-P stimulated cells from at least two normal donors were pooled (mixed together), diluted in fresh medium to a final concentration of 1×10^6 cells/mL, and plated in the interior wells of a 96 well round bottom microplate at 50 μL/well (5×10^4 cells/well) in a standard format developed by the Infectious Disease Research department of Southern Research Institute. Pooling (mixing) of mononuclear cells from more than one donor is used to minimize the variability observed between individual donors, which results from quantitative and qualitative differences in HIV infection and overall response to the PHA and IL-2 of primary lymphocyte populations. Each plate contains virus/cell control wells (cells plus virus), experimental wells (drug plus cells plus virus) and compound control wells (drug plus media without cells, necessary for MTS monitoring of cytotoxicity). Since HIV-1 is not cytopathic to PBMCs, this allows the use of the same assay plate for both antiviral activity and cytotoxicity measurements. Test drug dilutions were prepared at a 2× concentration in microtiter tubes and 100 μL of each concentration was placed in appropriate wells using the standard format. 50 μL of a predetermined dilution of virus stock was placed in each test well (final MOI≅0.1). The PBMC cultures were maintained for seven days following infection at 37° C., 5% CO2. After this period, cell-free supernatant samples were collected for analysis of reverse transcriptase activity as a measure of virus release. Following removal of supernatant samples, compound cytotoxicity was measured by addition of MTS to the plates for determination of cell viability. Wells were also examined microscopically and any abnormalities were noted.
A microtiter plate-based reverse transcriptase (RT) reaction was utilized (Buckheit et al., AIDS Research and Human Retroviruses 7:295-302, 1991). Tritiated thymidine triphosphate (3H-TTP, 80 Ci/mmol, NEN) was received in 1:1 dH2O:Ethanol at 1 mCi/mL. […]

Data set [1] is described as follows: MTS staining for PBMC viability to measure cytotoxicity. Type of data set: cell-based, human. As to conditions: human. The procedure:
as §1
At assay termination, assay plates were stained with the soluble tetrazolium-based dye MTS (CellTiter 96 Reagent, Promega) to determine cell viability and quantify compound toxicity. The mitochondrial enzymes of metabolically active cells metabolize MTS to yield a soluble formazan product. This allows the rapid quantitative analysis of cell viability and compound cytotoxicity. […] At termination of the assay, 20 μL of MTS reagent was added per well. The microtiter plates were then incubated 4-6 hrs at 37° C. The incubation intervals were chosen based on empirically determined times for optimal dye reduction. Adhesive plate sealers were used in place of the lids, the sealed plate was inverted several times to mix the soluble formazan product and the plate was read spectrophotometrically at 490/650 nm with a Molecular Devices Vmax or SpectraMaxPlus plate reader.
Compounds were tested in the PBMC assay using the maximum high-test concentration possible based on the supplied stocks which are listed in table 3. Compounds were prepared at a 2× high-test concentration by combining drug stock with tissue culture media at a ratio of 5 μL of drug to 995 μL of media. This 2× high-test sample was subsequently serially diluted in tissue culture media using 1/2 log dilutions. This series of 2× concentrated drug was subsequently diluted 1:1 by combining with an equal volume of cells in media in the 96-well plates used for the assay.

Setting [2] is: 50% inhibition of Renilla Luciferase, 24 hours, HeLa reporter line, read-out: IC50.
The mark [3] stands for this setting: PBMC plates with HIV-1 BR/93/021, MTS, read-out: TC50.
The mark [4] stands for this setting: PBMC plates with HIV-1 NL4-3, MTS, read-out: TC50.
[5] abbreviates: Human immunodeficiency virus 1, NL43, PBMC, 168 h.

T1 sequence (P04618 whole entry, looked up): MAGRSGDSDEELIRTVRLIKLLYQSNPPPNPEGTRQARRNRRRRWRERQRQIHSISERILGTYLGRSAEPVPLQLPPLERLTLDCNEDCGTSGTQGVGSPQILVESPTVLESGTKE

By IC50 is commonly meant the concentration needed to halve the response being measured. As for “2-chloro-N-(4-methylphenyl)-4-(trifluoromethyl)-1,3-thazole-5-carboxamide [Compound 91161]”, the CC50 in the data set on MT4 cells stood at 18 µM. Also, the IC50 at HIV-1 Rev (setting [2]) was 9.73 µM; in the data set on HIV-1 NL4-3, 2.28 µM. Further, the “TI (TC50/IC50)” value is above 4.06 at HIV-1 Rev and 5.92 in the data set on HIV-1 NL4-3.

As for `CCc1c(C(=O)Nc2ccccc2)c(C)nc2sc(C(N)=O)c(N)c12` [Compound 75168, 3-amino-4-ethyl-6-methyl-N˜5˜-phenylthieno[2,3-b]pyridine-2,5-dicarboxamide], the CC50 at 7 days in data set [1] (setting [3]) and in data set [1] (setting [4]) was above 26.8 µM in each case. Moreover, the CC50 with MT4 cells is above 100 µM. The IC50 on HIV-1 Rev (setting [2]) came to 2.42 µM; with HIV-1 NL4-3 (setting [5]), 16.9 µM. In addition, the figures for the “TI (TC50/IC50)” value at HIV-1 Rev and in the data set on HIV-1 NL4-3 were 3.27 and above 1.59, respectively.

`COc1ccc2cc3c(N)n[nH]c3nc2c1` [Compound 89246, 7-methoxy-1H-pyrazolo[3,4-b]quinolin-3-ylamine]: the CC50 at 7 days in data set [1] (setting [3]) was 32.7 µM; in data set [1] (setting [4]), 21.9 µM. Also, the CC50 with MT4 cells came out at 20 µM. Also, the IC50 amounted to 0.48 µM on HIV-1 Rev (setting [2]) and 1.47 µM in the data set with HIV-1 NL4-3 (setting [5]). Also, the entries for the “TI (TC50/IC50)” value at HIV-1 Rev and in the data set on HIV-1 NL4-3 were 17.52 and 14.90, respectively.

`CCc1c(C)nc2sc(C(N)=O)c(N)c2c1C` [Compound 103833, 3-amino-5-ethyl-4,6-dimethylthieno[2,3-b]pyridine-2-carboxamide] showed a CC50 at 7 days in data set [1] (TC50) above 37.6 µM. The CC50 in the data set on MT4 cells was 32 µM. Moreover, the IC50 on HIV-1 Rev worked out at 1.07 µM; with HIV-1 NL4-3 (setting [5]), 2.22 µM. The “TI (TC50/IC50)” value in the data set on HIV-1 NL4-3 was above 16.94.

As for `COc1ccc2nc(C(F)(F)F)c(C#N)c(N)c2c1` [Compound 104366, 4-amino-6-methoxy-2-(trifluoromethyl)-3-quinolinecarbonitrile], the CC50 at 7 days in data set [1] (setting [3]) is 24.9 µM; in data set [1] (setting [4]), 22 µM. Besides, the CC50 in the data set on MT4 cells was determined as 28 µM. Further, the results for the IC50 at HIV-1 Rev (setting [2]) and with HIV-1 NL4-3 (setting [5]) were 2.24 µM and 0.92 µM, respectively. Further, the “TI (TC50/IC50)” value on HIV-1 Rev came to 7.68; with HIV-1 NL4-3 it was 23.91.

Turning to `CS(=O)(=O)c1ncc(-c2ccc(Br)cc2)cn1` [Compound 107129, -(4-bromophenyl)-2-(methylsulfonyl)pyrimidine], the results for the CC50 at 7 days in data set [1] (setting [3]) and in data set [1] (setting [4]) were 6.26 µM and 4.13 µM, respectively. For the same compound, the CC50 in the data set on MT4 cells came to 10 µM. In addition, the IC50 at HIV-1 Rev (setting [2]) stood at 7.48 µM; in the data set with HIV-1 NL4-3 (setting [5]), 2.12 µM. The “TI (TC50/IC50)” value came out at 4.13 on HIV-1 Rev and 1.95 in the data set on HIV-1 NL4-3.

Regarding `COc1cccc(NC(=O)c2cc(Cl)nnc2Cl)c1` [Compound 107740, 3,6-dichloro-N-(3-methoxyphenyl)-4-pyridazinecarboxamide], the CC50 at 7 days in data set [1] (setting [3]) worked out at 18.8 µM; in data set [1] (setting [4]), 14.4 µM. Also, the CC50 in the data set with MT4 cells was 50 µM. In addition, the IC50 was 8 µM at HIV-1 Rev (setting [2]) and 1.61 µM in the data set with HIV-1 NL4-3 (setting [5]). The “TI (TC50/IC50)” value on HIV-1 Rev was determined as 2.31; in the data set on HIV-1 NL4-3 it was 8.94.

`Fc1ccc(Nc2ncnc3ccccc23)cc1Cl` [Compound 109020, N-(3-chloro-4-fluorophenyl)-N-(4-quinazolinyl)amine] yielded a CC50 at 7 days in data set [1] (TC50) above 40.8 µM. Also, the IC50 was found to be 8.98 µM on HIV-1 Rev and 26.4 µM in the data set with HIV-1 NL4-3 (setting [5]). The “TI (TC50/IC50)” value at HIV-1 Rev was above 4.54; with HIV-1 NL4-3, above 1.55.
